Assay results from US5262421A, “Use of dicentrine and its derivatives for the treatment of hypertension, arrhythmia, thrombosis and atherosclerosis” (National Science Council, priority 1991, dated 1993).
“Also recorded” adds a separate entry of the source.

Assays:
[1] = tested on: isolated thoracic aorta of rats fed with high cholesterol and high fat diet; test: Contractile force of isolated thoracic aorta from rats fed high cholesterol and high fat diet; type: in vivo, rat; details: for contractile force: high cholesterol & fat diet, dicentrine 10 mg/kg, prazosin 5 mg/kg
[2] = tested on: Thromboxane B2 formation in washed rabbit platelets; test: Thromboxane B2 formation in washed rabbit platelets (RIA); type: cell-based; details: for Thromboxane B2: dicentrine 150 μM
Protocol: (§1) At 6 min after the addition of inducer, indomethacin (50 μM) and EDTA (2 mM) were added to stop the reaction, and thromboxane B2 was assayed by RIA kits.
(§2) Means ± S.E.M. are presented. *: P < 0.05, **: P < 0.01, ***: P < 0.00
(§3) as compared with the respective control. Concentration: arachidonic acid
(§4) (100 μM), collagen (10 ug/ml), thrombin (0.1 U/ml), dicentrine (150

[3] = tested on: rats fed with high cholesterol and high fat diet; test: Blood cholesterol and triglyceride in rats fed high cholesterol and high fat diet; type: in vivo, rat; details: for Cholesterol / Triglyceride: high cholesterol & fat diet, dicentrine 10 mg/kg or prazosin 5 mg/kg, oral twice a day in last week; for Cholesterol: diet control 120 ± 7.1, normal diet 62 ± 4.5; for Triglyceride: diet control 305 ± 11.1, normal diet 84 ± 5.4
rat ventricular cells = test: Action potential of rat ventricular cells; type: cell-based; details: for Tp (time to peak) / APD50 (action potential duration at 50% repolarization) / AP amplitude (initial upstroke amplitude): 3 μM; for Tp (time to peak): control 5.0 ± 0.5 (dicentrine), 5.3 ± 0.5 (quinidine); for APD50 (action potential duration at 50% repolarization): control 59.9 ± 11.3 (dicentrine), 62.6 ± 3.9 (quinidine); for AP amplitude (initial upstroke amplitude): control 138.3 ± 2.6 (dicentrine), 135.2 ± 2.2 (quinidine)
From the text: (§5) In rat ventricular cells, the effects of dicentrine on action potential and membrane current were studied. […] However, calcium current was less affected.
The effects of dicentrine and quinidine on action potential were compared and studied in rat ventricular cells. […] In addition to the prolongation of APD50, a depression of initial upstroke amplitude from 138.3±2.6 mV to 125.5±4.5 mV and prolongation of the time to peak amplitude from 5.0±0.5 msec to 10.0±1.9 msec were observed.
Means ± S.E.M. are presented. *: P < 0.05 as compared with the
APD50 : action potential duration measured at 50% repolarization fro
Tp : time to peak measured from the start of depolarization to the
Concentration: dicentrine (3 μM), quinidine (3 μM).

washed rabbit platelets = test: Aggregation of washed rabbit platelets induced by arachidonic acid, collagen, thrombin, ADP or PAF; type: cell-based; details: for Aggregation (%): dicentrine 150 μM
From the text: These fractions inhibited the aggregation of washed rabbit platelets induced by ADP, collagen, arachidonic acid and platelet-activating factor (PAF). […] Furthermore, the action potential of rat ventricular cells was prolonged by these fractions. After rechromatography on a silica gel column with n-hexane-ethylacetate (2:1), four potent compounds, dicentrine, N-methylnandigerine, N-methylovigenine and dicentrinone were obtained.
500 g of dried, ground root material Lindera oldhamu (megaphylla) Hemsl was extracted with 95% ethanol, and the extract was concentrated in vacuo and fractionated into ethanol- and ethylacetate-soluble fractions. The ethylacetate-soluble fraction was then applied to a column of silica gel and eight fractions were obtained.
as §2, §3
(100 μM), collagen (10 μg/ml), norepinephrine (NE, 3 μM), each
as §1, §4

[4] = tested on: conscious spontaneously hypertensive (SH) and normotensive (NT) rats; test: Mean arterial pressure in conscious spontaneously hypertensive (SH) and normotensive (NT) rats; type: in vivo, rat
[5] = tested on: membrane currents of rat ventricular cells; test: Voltage clamp, membrane currents in rat ventricular cells; type: cell-based
From the text: as §5

anesthetized rats = test: Systemic hemodynamic parameters of pentobarbital-anesthetized rats; type: in vivo, rat; details: for Blood flow: before 7 ± 4; for total peripheral resistance: dicentrine 1.0 mg/kg, prazosin 0.1 mg/kg
guinea-pig trachea = test: Contraction and relaxation of guinea-pig trachea; details: in words
[6] = tested on: α1-adrenoceptor (rat thoracic aortae); test: Schild analysis of α1-adrenoceptor antagonism: norepinephrine- and phenylephrine-induced contraction of rat thoracic aortae
From the text: Results are given as means ± S.E.M. or the mean with 95% confidence

rat thoracic aortae = test: Norepinephrine-induced contraction of rat thoracic aortae (phasic and tonic); details: in words
rat thoracic aorta = test: Aortic contraction induced by other agonists; details: in words
[7] = oral twice a day (10 mg/kg) in the last week, in words
[8] = pentobarbital-anesthetized rats, in words

In the case of `COc1cc2c(cc1OC)-c1c3c(cc4c1[C@H](C2)N(C)CC4)OCO3` [dicentrine], the “contractile force of aorta” value ([1]; cholesterol-triglyceride-treated rats, in words) is reported as “restored the contractile force of cholesterol-triglyceride-treated rat aortae back to normal values”, the “maximal contractile force of isolated thoracic aorta” value [1, 7] is reported as “restored to normal range” and the contractile force ([1]; phenylephrine 3 × 10^-6 M) is reported as 0.75 ± 0.12 g. The contractile force ([1]; phenylephrine 3 × 10^-7 M) was 0.55 ± 0.07 g, the contractile force ([1]; phenylephrine 3 × 10^-8 M) was 0.22 ± 0.05 g and the contractile force ([1]; phenylephrine 10^-6 M) was 0.67 ± 0.11 g. For the same molecule, the contractile force ([1]; phenylephrine 10^-7 M) was 0.55 ± 0.07 g, the Thromboxane formations ([2]; caused by arachidonic acid, collagen and thrombin, in words) was “all suppressed” and the “Thromboxane B2” value ([2]; inducer arachidonic acid 100 μM, control 445 ± 44) was 19 ± 15 ng/10^8 platelets. For the same molecule, the “Thromboxane B2” value ([2]; inducer collagen 10 ug/ml, control 478 ± 93) was 70 ± 5 ng/10^8 platelets, the “Thromboxane B2” value ([2]; inducer thrombin 0.1 U/ml, control 131 ± 25) was 44 ± 14 ng/10^8 platelets and the serum triglyceride level ([3]; cholesterol-triglyceride-rich diet, in words) was “decreased”. For the same molecule, the Cholesterol [3] was 112 ± 4.6 mg/dL, the Triglyceride [3] was 108 ± 4.3 mg/dL and the blood cholesterol level [3, 7] was “unchanged”. For the same molecule, the triglyceride level [3, 7] was “restored to normal levels”, the “Tp (time to peak)” value (rat ventricular cells) was 10.0 ± 1.9 ms and the “Tp (time to peak)” value (rat ventricular cells; listed as Dicentrine) was 10.0 ± 1.9 ms. The “APD50 (action potential duration at 50% repolarization)” value (rat ventricular cells) was 201.9 ± 28.7 ms, the “APD50 (action potential duration at 50% repolarization)” value (rat ventricular cells; listed as Dicentrine) was 201.9 ± 28.7 ms and the “AP amplitude (initial upstroke amplitude)” value (shortened to “AP amplitude”) (rat ventricular cells) was 125.5±4.5 mV. The “AP amplitude” value (rat ventricular cells; listed as Dicentrine) was 125.5 ± 4.5 mV, the action potential (rat ventricular cells; stimulation frequency 0.1 Hz) was “prolonged” and the initial upstroke amplitude (rat ventricular cells; stimulation frequency 0.1 Hz) was “reduced”. For the same molecule, the time to peak (rat ventricular cells; stimulation frequency 0.1 Hz) was “increased”, the “aggregation of washed rabbit platelets” value (washed rabbit platelets; induced by arachidonic acid and collagen, in words) was “inhibited” and the “Aggregation (%)” value (washed rabbit platelets; inducer arachidonic acid 100 μM, control 92 ± 1) was 11 ± 7%. The “Aggregation (%)” value (washed rabbit platelets; inducer collagen 10 ug/ml, control 94 ± 1) was 51 ± 7%, the “Aggregation (%)” value (washed rabbit platelets; inducer thrombin 0.1 U/ml, control 95 ± 2) was 92 ± 2% and the mean arterial pressure ([4]; conscious SH and NT rats) was “dose-related decreases in mean arterial pressure which were of a greater magnitude in SH rats than in NT rats”. The “duration of hypotensive effect” value ([4]; oral administration, conscious SH rats) was “over 15 hr”, the calcium current [5] was “less affected” and the “fast sodium inward current” value [5] was “inhibition”. The “steady state outward current” value [5] was “significant inhibition”, the transient outward current [5] was “significant inhibition” and the Blood flow (anesthetized rats; after dicentrine 1.0 mg/kg) was 200 ± 27. It also gave a CO (anesthetized rats; after dicentrine 1.0 mg/kg, before 21 ± 2) of 25 ± 4 mL/min, an MAP (anesthetized rats; after dicentrine 1.0 mg/kg, before 122 ± 5) of 62 ± 5 mm Hg and an HR (anesthetized rats; after dicentrine 1.0 mg/kg, before 353 ± 10) of 348 ± 8 bpm. For the same molecule, the “hypotensive activity after α1-adrenoceptor blockade” value (anesthetized rats; after α1-adrenoceptor blockade) was “completely abolished”, the “mean arterial blood pressure” value (anesthetized rats; anesthetized rats, i.v. bolus 0.1-1.0 mg/kg) was “dose-related reduction” and the “duration of reduction in mean arterial blood pressure” value (anesthetized rats; anesthetized rats, i.v. bolus 0.1-1.0 mg/kg, throughout observation period) was ≥ 2 h. For the same molecule, the total peripheral resistance (anesthetized rats) was “reduction”, the “cardiac output (CO)” value (anesthetized rats; [8]) was “little or no change” and the “heart rate (HR), or stroke volume (SV)” value (anesthetized rats; [8]) was “no change”. The “mean arterial pressure (MAP)” value (anesthetized rats; [8]) was “decrease”, the “contraction of guinea-pig trachea caused by histamine or carbachol” value (guinea-pig trachea) was “slightly inhibited” and the “β-adrenoceptor relaxation to isoprenaline in trachea” value (guinea-pig trachea) was “not affected”. For the same molecule, the “α1-adrenoceptor antagonism, relative potency” value ([6]; comparison with prazosin, yohimbine and phentolamine) was “less potent than prazosin; also recorded: much more potent than phentolamine or yohimbine”, the “effects in denuded aortae” value ([6]; denuded aortae) was “still persisted” and the “norepinephrine- or phenylephrine-induced vasoconstriction of rat aortae” value ([6]; in words) was “competitive antagonism”. The “vasorelaxant activity in rat thoracic aorta” value (rat thoracic aortae) was “most potent vasorelaxant” and the “aortic contraction induced by U-46619, angiotensin II, high potassium or carbachol” value (rat thoracic aorta) was “did not affect”.

In the case of `COc1cc2nc(N3CCN(C(=O)c4ccco4)CC3)nc(N)c2cc1OC` [prazosin, reference compound], the contractile force ([1]; phenylephrine 3 × 10^-6 M) is reported as 0.87 ± 0.12 g, the contractile force ([1]; phenylephrine 3 × 10^-7 M) is reported as 0.70 ± 0.09 g and the contractile force ([1]; phenylephrine 3 × 10^-8 M) is reported as 0.30 ± 0.05 g. For the same molecule, the contractile force ([1]; phenylephrine 10^-6 M) was 0.80 ± 0.12 g, the contractile force ([1]; phenylephrine 10^-7 M) was 0.51 ± 0.08 g and the Cholesterol [3] was 112 ± 3.9 mg/dL. It also gave a Triglyceride [3] of 114 ± 9.2 mg/dL, a Blood flow (anesthetized rats; after prazosin 0.1 mg/kg) of 171 ± 14 and a CO (anesthetized rats; after prazosin 0.1 mg/kg, before 27 ± 3) of 32 ± 3 mL/min. The MAP (anesthetized rats; after prazosin 0.1 mg/kg, before 120 ± 4) was 68 ± 6 mm Hg, the HR (anesthetized rats; after prazosin 0.1 mg/kg, before 367 ± 9) was 337 ± 10 bpm and the total peripheral resistance (anesthetized rats) was “reduction”. For the same molecule, the “cardiac output (CO)” value (anesthetized rats; [8]) was “little or no change” and the “mean arterial pressure (MAP)” value (anesthetized rats; [8]) was “decrease”.

With `C=C[C@H]1C[N@@]2CC[C@H]1C[C@@H]2[C@@H](O)c1ccnc2ccc(OC)cc12` [quinidine, reference compound] the “Tp (time to peak)” value (rat ventricular cells) was 10.8 ± 2.4 ms, the “APD50 (action potential duration at 50% repolarization)” value (rat ventricular cells) was 276.0 ± 18.6 ms and the “AP amplitude” value (rat ventricular cells) was 121.2 ± 2.3 mV.
